Experimental data from US11304419B2, “Methods to induce heat stress tolerance in plants” (Valent BioSciences LLC, priority 2020, dated 2022).

How the values were obtained:
Type in all cases: in vivo
[1] = tested on: Apogee wheat; assay: Heat stress tolerance in wheat following ACC application during flowering; conditions: heat stress 36/30° C. 7 days, n = 8
Protocol: 24 pots of Apogee wheat were grown in a greenhouse under 3 consecutive growing conditions. First, the wheat was planted in ProMix® growth media and grown for about 6 weeks in a growth cabinet at 24/18° C. day/night temperature under a 16/8 hour light/dark photoperiod. Plants were at Feekes stage 10.4-10.5 (flowering stage) following the first set of growth conditions. Next, spray applications of 0, 30 or 100 ppm ACC (n=8) were made using a tank sprayer. Next, 2 days following treatment, the plants were transferred to a growth chamber at 36/30° C. day/night temperature under a 16/8-hour light/dark photoperiod for 7 days. These conditions constitute significant heat stress. Finally, the plants were then returned to growth chamber at 24/18° C. day/night temperature under a 16/8-hour light/dark photoperiod for about 5 additional weeks. Plants were then destructively harvested and measured for total spike number, spike weight, grain weight, yield per spike, A spike number and harvest index. A spike number is calculated by subtracting the number of reproductive tillers at treatment from the number of reproductive tillers at harvest. An increase in reproductive tillers is indicative of an increase in reproductive success. Harvest index is calculated by dividing pounds of grain by the total pounds of above ground biomass.

[2] = tested on: Apogee wheat; assay: Heat stress tolerance in wheat following ACC application at Feekes stage 5 (Example 2); conditions: heat stress 34/28° C. 4 days
Protocol: Apogee wheat was seeded into ProMix BX (Premier Horticulture) and grown in a growth cabinet under the following conditions: 24/18° C. day/night temperature under a 16/8 hour light/dark photoperiod. Plants were evaluated at Feekes stage 5 following the first set of growth conditions on Nov. 15, 2019. Next, spray applications of 0, 0 or 100 ppm ACC (n=8) were made using a track sprayer. Next, 2 days following treatment, one set of control plants (“treatment control”) and the 100 ppm ACC plants were transferred to a second growth cabinet at 34/28° C. day/night temperature under a 16/8-hour light/dark photoperiod for 4 days. These conditions constitute significant heat stress. The other set of control plants (“stress control”) remained in the first growth cabinet. Finally, the plants were then returned to the first growth cabinet for about 14 days where plants reached Feekes stage 10.1 (head emergence). Plants were then destructively harvested and measured for total spike number, fresh weight, total reproductive tiller number, percent reproductive tillers, A canopy density and total dry weight. Percent reproductive tillers is calculated by dividing the number of reproductive tillers by the total number of spikes at harvest. A canopy density is calculated by subtracting the canopy density at treatment from the canopy density at harvest.

[3] = tested on: Williams 82 soybean; assay: Heat stress tolerance in soybean following ACC application; conditions: heat stress 34/30° C. six days; for Canopy Density / Fresh Weight / Height / Total Dry Weight / Δ Canopy Density: n = 5; for Canopy Density, percent increase over stress control / Fresh Weight, percent increase over stress control / Height, percent increase over stress control / Total Dry Weight, percent increase over stress control / Δ Canopy Density, percent increase over stress control: vs stress control; for Canopy Density, percent increase over treatment control / Fresh Weight, percent increase over treatment control / Height, percent increase over treatment control / Total Dry Weight, percent increase over treatment control / Δ Canopy Density, percent increase over treatment control: vs treatment control
Protocol: Williams 82 soybean was seeded into ProMix BX (Premier Horticulture) and grown in a greenhouse. […] Next, spray applications of […] (n=5) were made using a track sprayer on Oct. 9, 2020. Following spraying, plants were moved to a growth cabinet under the following conditions: 24/18 C day night temperatures under a 16/8 light dark period. Next, 3 days following treatment, half of the plants were transferred to a second growth cabinet at 34/30° C. day/night temperature under a 16/8-hour light/dark photoperiod for six days. These conditions constitute early season heat stress. Plants were then destructively harvested and measured for fresh weight, canopy density, Δ canopy density, total dry weight and height.

[4] = 30 ppm ACC spray at Feekes stage 10.4-10.5
[5] = 100 ppm ACC spray at Feekes stage 10.4-10.5
[6] = 100 ppm ACC spray at Feekes stage 5, n = 8
[7] = 100 ppm ACC, vs stress control (no heat)
[8] = 100 ppm ACC, vs treatment control (heat, no ACC)

NC1(C(=O)O)CC1 [ACC, 1-amino-1-cyclopropanecarboxylic acid]
Grain Weight [1, 4]: 3.1 grams | Harvest Index [1, 4]: 0.32 | Spike Weight [1, 4]: 5.39 grams | Total Spike Number [1, 4]: 6.25 | Yield per Spike [1, 4]: 0.5 grams | Δ Spike Number [1, 4]: 1.75 | Grain Weight [1, 5]: 3.37 grams | Harvest Index [1, 5]: 0.34 | Spike Weight [1, 5]: 5.69 grams | Total Spike Number [1, 5]: 6.5 | Yield per Spike [1, 5]: 0.53 grams | Δ Spike Number [1, 5]: 2.13 | % Reproductive Tillers [2, 6]: 89.60% | Fresh Weight [2, 6]: 9.18 grams | Total Dry Weight [2, 6]: 2.12 grams | Total Spike Number [2, 6]: 3.13 | Total Tiller Number [2, 6]: 2.75 | Δ Canopy Density [2, 6]: 1.52 | Fresh Weight, percent increase over stress control [2, 7]: (−18.8%) | Total Dry Weight, percent increase over stress control [2, 7]: (−16.9%) | Total Spike Number, percent increase over stress control [2, 7]: (−7.1%) | Total Tiller Number, percent increase over stress control [2, 7]: (−12.1%) | % Reproductive Tillers, percent increase over treatment control [2, 8]: [43.4%] | Fresh Weight, percent increase over treatment control [2, 8]: [19.2%] | Total Dry Weight, percent increase over treatment control [2, 8]: [7.6%] | Total Spike Number, percent increase over treatment control [2, 8]: [−3.7%] | Total Tiller Number, percent increase over treatment control [2, 8]: [37.5%] | Δ Canopy Density, percent increase over treatment control [2, 8]: [42.1%] | Canopy Density ([3]; 10 ppm ACC spray at V1): 13.24 | Fresh Weight ([3]; 10 ppm ACC spray at V1): 19.85 grams | Height ([3]; 10 ppm ACC spray at V1): 41.07 cm | Total Dry Weight ([3]; 10 ppm ACC spray at V1): 3.15 grams | Δ Canopy Density ([3]; 10 ppm ACC spray at V1): 7.77 | Canopy Density, percent increase over stress control ([3]; 10 ppm ACC): (83.9%) | Fresh Weight, percent increase over stress control ([3]; 10 ppm ACC): (32.8%) | Height, percent increase over stress control ([3]; 10 ppm ACC): (30.1%) | Total Dry Weight, percent increase over stress control ([3]; 10 ppm ACC): (18.9%) | Δ Canopy Density, percent increase over stress control ([3]; 10 ppm ACC): (256.4%) | Canopy Density, percent increase over treatment control ([3]; 10 ppm ACC): [13.6%] | Fresh Weight, percent increase over treatment control ([3]; 10 ppm ACC): [6.5%] | Height, percent increase over treatment control ([3]; 10 ppm ACC): [7.9%] | Total Dry Weight, percent increase over treatment control ([3]; 10 ppm ACC): [6.8%] | Δ Canopy Density, percent increase over treatment control ([3]; 10 ppm ACC): [22.4%] | Canopy Density ([3]; 30 ppm ACC spray at V1): 12.68 | Fresh Weight ([3]; 30 ppm ACC spray at V1): 20.33 grams | Height ([3]; 30 ppm ACC spray at V1): 38.25 cm | Total Dry Weight ([3]; 30 ppm ACC spray at V1): 3.25 grams | Δ Canopy Density ([3]; 30 ppm ACC spray at V1): 7.19 | Canopy Density, percent increase over stress control ([3]; 30 ppm ACC): (76.1%) | Fresh Weight, percent increase over stress control ([3]; 30 ppm ACC): (36.0%) | Height, percent increase over stress control ([3]; 30 ppm ACC): (21.1%) | Total Dry Weight, percent increase over stress control ([3]; 30 ppm ACC): (22.6%) | Δ Canopy Density, percent increase over stress control ([3]; 30 ppm ACC): (229.8%) | Canopy Density, percent increase over treatment control ([3]; 30 ppm ACC): [8.7%] | Fresh Weight, percent increase over treatment control ([3]; 30 ppm ACC): [9.1%] | Height, percent increase over treatment control ([3]; 30 ppm ACC): [0.5%] | Total Dry Weight, percent increase over treatment control ([3]; 30 ppm ACC): [10.2%] | Δ Canopy Density, percent increase over treatment control ([3]; 30 ppm ACC): [13.2%] | Canopy Density ([3]; 100 ppm ACC spray at V1): 10.90 | Fresh Weight ([3]; 100 ppm ACC spray at V1): 19.25 grams | Height ([3]; 100 ppm ACC spray at V1): 37.95 cm | Total Dry Weight ([3]; 100 ppm ACC spray at V1): 3.08 grams | Δ Canopy Density ([3]; 100 ppm ACC spray at V1): 5.36 | Canopy Density, percent increase over stress control ([3]; 100 ppm ACC): (51.4%) | Fresh Weight, percent increase over stress control ([3]; 100 ppm ACC): (28.8%) | Height, percent increase over stress control ([3]; 100 ppm ACC): (20.2%) | Total Dry Weight, percent increase over stress control ([3]; 100 ppm ACC): (16.2%) | Δ Canopy Density, percent increase over stress control ([3]; 100 ppm ACC): (145.9%) | Canopy Density, percent increase over treatment control ([3]; 100 ppm ACC): [−6.5%] | Fresh Weight, percent increase over treatment control ([3]; 100 ppm ACC): [3.3%] | Height, percent increase over treatment control ([3]; 100 ppm ACC): [−0.3%] | Total Dry Weight, percent increase over treatment control ([3]; 100 ppm ACC): [4.4%] | Δ Canopy Density, percent increase over treatment control ([3]; 100 ppm ACC): [−15.6%]
